According to US20010044459A1, “Hydroxamic acid derivatives” (priority 1997, published 2001):
Where a SMILES comes first, the peptide text is derived from it.

What was measured:
[1] = target: NAALADase (Rattus norvegicus, UniProt P70627); assay: In vitro assay of NAALADase activity ([3H]Glu liberated from [3H]NAAG, synaptosomal protein); format: biochemical; details: compared with 2-(phosphonomethyl)pentanedioic acid
Experimental: Substrate and product were resolved by anion-exchange liquid chromatography. […] Quisqualate (100 μM) was included in parallel assay tubes to confirm the specificity of the measurements.

[2] = target: NAALADase (Homo sapiens, UniProt Q04609); details: read-out: Km of NAALADase for NAAG; NAAG as substrate; cited from earlier work
[3] = test system: cortical cell cultures; assay: In vitro toxicity of NAAG (LDH release); format: cell-based, rats; details: NAAG 3 μM for 20 minutes
Experimental: Experiments are performed after 21 days in cultures.
At the end of exposure, the cells are washed once with HEPES buffered saline solution and then replaced with serum free modified Earle's basal medium. The cultures are then returned to the CO2 incubator for 24 hour recovery.
This control measurement is subtracted from each experimental point.

Sequence of NAALADase (Rattus norvegicus, UniProt P70627) (P70627 whole entry): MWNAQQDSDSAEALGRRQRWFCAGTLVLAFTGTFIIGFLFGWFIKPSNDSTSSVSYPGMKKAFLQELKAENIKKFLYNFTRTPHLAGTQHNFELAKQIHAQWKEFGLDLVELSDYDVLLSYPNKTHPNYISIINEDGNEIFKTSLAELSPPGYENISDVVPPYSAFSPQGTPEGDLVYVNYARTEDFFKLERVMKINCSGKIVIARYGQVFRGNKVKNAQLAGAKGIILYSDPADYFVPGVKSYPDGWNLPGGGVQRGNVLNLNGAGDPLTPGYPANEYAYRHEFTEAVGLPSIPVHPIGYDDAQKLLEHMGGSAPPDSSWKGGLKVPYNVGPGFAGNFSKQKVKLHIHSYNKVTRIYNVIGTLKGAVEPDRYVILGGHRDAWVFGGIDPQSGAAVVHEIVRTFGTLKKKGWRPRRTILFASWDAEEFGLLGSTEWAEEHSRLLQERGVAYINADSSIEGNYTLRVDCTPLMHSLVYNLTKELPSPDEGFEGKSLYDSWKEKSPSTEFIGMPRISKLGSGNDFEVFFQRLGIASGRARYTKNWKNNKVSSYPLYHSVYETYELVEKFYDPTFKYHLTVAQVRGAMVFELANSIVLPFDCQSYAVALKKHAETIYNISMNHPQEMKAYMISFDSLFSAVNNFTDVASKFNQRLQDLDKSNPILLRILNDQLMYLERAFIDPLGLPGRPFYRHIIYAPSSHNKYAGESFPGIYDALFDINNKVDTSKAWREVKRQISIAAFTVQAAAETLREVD
Sequence of NAALADase (Homo sapiens, UniProt Q04609) (Q04609 whole entry): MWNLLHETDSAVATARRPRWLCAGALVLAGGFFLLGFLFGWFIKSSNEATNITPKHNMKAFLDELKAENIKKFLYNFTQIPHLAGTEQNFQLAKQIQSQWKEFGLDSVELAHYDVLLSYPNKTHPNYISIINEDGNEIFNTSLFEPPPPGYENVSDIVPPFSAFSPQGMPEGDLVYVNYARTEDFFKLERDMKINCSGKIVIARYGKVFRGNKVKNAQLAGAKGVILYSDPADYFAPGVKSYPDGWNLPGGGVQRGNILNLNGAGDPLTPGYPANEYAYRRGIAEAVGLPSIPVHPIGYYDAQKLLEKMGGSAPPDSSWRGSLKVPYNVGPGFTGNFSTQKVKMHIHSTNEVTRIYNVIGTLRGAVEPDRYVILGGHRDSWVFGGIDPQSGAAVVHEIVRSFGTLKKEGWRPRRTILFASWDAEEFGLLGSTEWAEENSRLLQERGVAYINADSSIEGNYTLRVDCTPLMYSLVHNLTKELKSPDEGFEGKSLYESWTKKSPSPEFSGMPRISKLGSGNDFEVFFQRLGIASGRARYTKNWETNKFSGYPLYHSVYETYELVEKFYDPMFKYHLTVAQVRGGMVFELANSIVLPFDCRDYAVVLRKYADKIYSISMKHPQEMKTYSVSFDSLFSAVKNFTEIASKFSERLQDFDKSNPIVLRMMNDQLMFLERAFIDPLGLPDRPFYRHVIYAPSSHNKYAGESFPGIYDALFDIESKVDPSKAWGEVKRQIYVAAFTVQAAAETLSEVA

SMILES | NAALADase inhibiting activity (in words, by comparison) [1] | Km [2] [µM] | % Toxicity [3] [%]
O=C(O)CC(CP(=O)(O)O)C(=O)O (stereo not shown) [2-(phosphonomethyl)succinic acid] | much lower NAALADase inhibiting activity |  | 
O=C(O)CCC(CP(=O)(O)CCC(=O)O)C(=O)O (stereo not shown) [2-[[2-carboxyethyl)hydroxyphosphinol]methyl]pentanedioic acid] | lower NAALADase inhibiting activity |  | 
CC(=O)N[C@@H](CC(=O)O)C(=O)N[C@@H](CCC(=O)O)C(=O)O [NAAG, N-acetyl-aspartyl-glutamate] (Ac-Asp-Glu-OH) |  | 0.54 | 3.51
